US9695155B2, “Herbicidal substituted pyrimidinyloxy benzene compounds” (E. I. DU PONT DE NEMOURS AND COMPANY, priority 2013, dated 2017)

Experiments:
large (Lg) crabgrass [1] = assay: Test A preemergence; type: in vivo, Digitaria sanguinalis; conditions: Digitaria sanguinalis, pre-emergence, 240 h, read-out: Crabgrass, Large plant response rating
Procedure, shortened: (§1)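 Injury scores run from 0, no effect, to 100, complete control, judged by eye against untreated plants roughly 10 days after treatment. Chemicals carried a surfactant in a non-phytotoxic solvent and went onto loam–sand soil preemergence or onto one- to two-leaf seedlings postemergence.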

morningglory [2] = assay: Test A preemergence; type: in vivo, Ipomoea spp.; conditions: Ipomoea, pre-emergence, 240 h, read-out: Morningglory plant response rating
Procedure, shortened: as §1

large (Lg) crabgrass [3] = assay: Test A postemergence; type: in vivo, Digitaria sanguinalis; conditions: Digitaria sanguinalis, post-emergence, 240 h
Procedure, shortened: as §1

morningglory [4] = assay: Test C postemergence; type: in vivo, Ipomoea coccinea; conditions: Ipomoea, post-emergence
Procedure, shortened: (§2)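 Visual ratings on a 0–100 scale (100 = complete control) were made versus untreated controls after 13–15 greenhouse days. Chemicals in a surfactant-containing non-phytotoxic solvent were applied either preemergence to seeds in loam–sand soil or postemergence to 1- to 4-leaf plants 2–18 cm tall.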

corn = assay: Test A postemergence; type: in vivo, Zea mays; conditions: Zea mays, post-emergence, 240 h
Procedure, shortened: as §1

kochia = assay: Test C postemergence; type: in vivo, Kochia scoparia; conditions: Bassia scoparia, post-emergence
Procedure, shortened: as §2

rice = assay: Test B flooded paddy test; type: in vivo, Oryza sativa; conditions: Oryza sativa; Flood, 250 g ai/ha; 0 to 100 scale where 0 is no effect and 100 is complete control; read-out: Plant response rating, Rice
Procedure, shortened: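 Compound added straight to paddy water, with pots kept flooded 3 cm above soil, on plants grown to the 2-leaf stage. Visual scoring 0-100 (100 = complete control) against untreated controls after 13 to 15 greenhouse days.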

yellow nutsedge = assay: Test C postemergence; type: in vivo, Cyperus esculentus; conditions: Cyperus, post-emergence
Procedure, shortened: as §2

pigweed = assay: Test C postemergence; type: in vivo, Amaranthus retroflexus; conditions: Amaranthus retroflexus, post-emergence
Procedure, shortened: as §2

wild oat = assay: Test C postemergence; type: in vivo, Avena fatua; conditions: Avena fatua, post-emergence
Procedure, shortened: as §2

Italian ryegrass = assay: Test C postemergence; type: in vivo, Lolium multiflorum; conditions: Lolium multiflorum, post-emergence
Procedure, shortened: as §2

wheat = assay: Test A preemergence; type: in vivo, Triticum aestivum; conditions: Triticum aestivum, pre-emergence, 240 h, read-out: Wheat plant response rating
Procedure, shortened: as §1

giant foxtail [5] = assay: Test A preemergence; type: in vivo, Setaria faberii; conditions: Setaria faberi, pre-emergence, 240 h, read-out: Foxtail, Giant plant response rating
Procedure, shortened: as §1

giant foxtail [6] = assay: Test A postemergence; type: in vivo, Setaria faberii; conditions: Setaria faberi, post-emergence, 240 h
Procedure, shortened: as §1

velvetleaf = assay: Test A postemergence; type: in vivo, Abutilon theophrasti; conditions: Abutilon theophrasti, post-emergence, 240 h
Procedure, shortened: as §1

[7] = 125 g ai/ha, 0 to 100 scale where 0 is no effect and 100 is complete control
[8] = 500 g ai/ha, 0 to 100 scale, 0 no effect, 100 complete control, approx. 10 days

## Clc1cnn(-c2ccccc2Oc2ncc(Br)cn2)c1 [Compound 5, 5-bromo-2-[2-(4-chloro-1H-pyrazol-1-yl)phenoxy]pyrimidine]
Large (Lg) crabgrass [1]; [7]
  pest or weed control at 125 g/ha: 90%
Large (Lg) crabgrass [1]; [8]
  pest or weed control at 500 g/ha: 90%
Morningglory [2]; [7]
  pest or weed control at 125 g/ha: 0%
Morningglory [2]; [8]
  pest or weed control at 500 g/ha: 20%
Large (Lg) crabgrass [3]; 125 g ai/ha, 0 to 100 scale where 0 is no effect and 100 is complete control, read-out: Plant response rating, Crabgrass, Large
  pest or weed control at 125 g/ha: 30%
Large (Lg) crabgrass [3]; 500 g ai/ha, 0 to 100 scale, 0 no effect, 100 complete control, read-out: Plant response rating Crabgrass, Large
  pest or weed control at 500 g/ha: 80%
Morningglory [4]; 125 g ai/ha, postemergence, read-out: Plant response rating (0 to 100), Morningglory
  pest or weed control at 125 g/ha: 60%
Morningglory [4]; 250 g ai/ha, postemergence, read-out: Plant response rating (0 to 100), Morningglory
  pest or weed control at 250 g/ha: 90%
Morningglory [4]; Postemergence, 31 g ai/ha, scale 0 to 100 (0 no effect, 100 complete control), 13 to 15 days, read-out: Plant response rating, Morningglory
  pest or weed control at 31 g/ha: 40%
Morningglory [4]; Postemergence, 62 g ai/ha, scale 0 to 100 (0 no effect, 100 complete control), read-out: Plant response rating, Morningglory
  pest or weed control at 62 g/ha: 60%
corn; [7]
  Corn plant response rating (crop injury, 0 = no effect, 100 = complete kill) at 125 g/ha: 0%
corn; 500 g ai/ha, 0 to 100 scale, 0 no effect, 100 complete control, read-out: Plant response rating Corn
  plant injury at 500 g/ha: 30%
kochia; 125 g ai/ha, postemergence, read-out: Plant response rating (0 to 100), Kochia
  pest or weed control at 125 g/ha: 70%
kochia; 250 g ai/ha, postemergence, read-out: Plant response rating (0 to 100), Kochia
  pest or weed control at 250 g/ha: 100%
kochia; Postemergence, 31 g ai/ha, scale 0 to 100 (0 no effect, 100 complete control), 13 to 15 days, read-out: Plant response rating, Kochia
  pest or weed control at 31 g/ha: 20%
kochia; Postemergence, 62 g ai/ha, scale 0 to 100 (0 no effect, 100 complete control), read-out: Plant response rating, Kochia
  pest or weed control at 62 g/ha: 55%
rice
  plant injury at 250 g/ha: 10%
Yellow nutsedge; 125 g ai/ha, postemergence, read-out: Plant response rating (0 to 100), Nutsedge, Yellow
  pest or weed control at 125 g/ha: 15%
Yellow nutsedge; 250 g ai/ha, postemergence, read-out: Plant response rating (0 to 100), Nutsedge, Yellow
  pest or weed control at 250 g/ha: 15%
Yellow nutsedge; Postemergence, 31 g ai/ha, scale 0 to 100 (0 no effect, 100 complete control), 13 to 15 days, read-out: Plant response rating, Nutsedge, Yellow
  pest or weed control at 31 g/ha: 5%
Yellow nutsedge; Postemergence, 62 g ai/ha, scale 0 to 100 (0 no effect, 100 complete control), read-out: Plant response rating, Nutsedge, Yellow
  pest or weed control at 62 g/ha: 5%
pigweed; 125 g ai/ha, postemergence, read-out: Plant response rating (0 to 100), Pigweed
  pest or weed control at 125 g/ha: 100%
pigweed; 250 g ai/ha, postemergence, read-out: Plant response rating (0 to 100), Pigweed
  pest or weed control at 250 g/ha: 100%
pigweed; Postemergence, 31 g ai/ha, scale 0 to 100 (0 no effect, 100 complete control), 13 to 15 days, read-out: Plant response rating, Pigweed
  pest or weed control at 31 g/ha: 98%
pigweed; Postemergence, 62 g ai/ha, scale 0 to 100 (0 no effect, 100 complete control), read-out: Plant response rating, Pigweed
  pest or weed control at 62 g/ha: 98%
Wild oat; 125 g ai/ha, postemergence, read-out: Plant response rating (0 to 100), Oat, Wild
  pest or weed control at 125 g/ha: 10%
Wild oat; 250 g ai/ha, postemergence, read-out: Plant response rating (0 to 100), Oat, Wild
  pest or weed control at 250 g/ha: 30%
Wild oat; Postemergence, 31 g ai/ha, scale 0 to 100 (0 no effect, 100 complete control), 13 to 15 days, read-out: Plant response rating, Oat, Wild
  pest or weed control at 31 g/ha: 0%
Wild oat; Postemergence, 62 g ai/ha, scale 0 to 100 (0 no effect, 100 complete control), read-out: Plant response rating, Oat, Wild
  pest or weed control at 62 g/ha: 5%
Italian ryegrass; 125 g ai/ha, postemergence, read-out: Plant response rating (0 to 100), Ryegrass, Italian
  pest or weed control at 125 g/ha: 10%
Italian ryegrass; 250 g ai/ha, postemergence, read-out: Plant response rating (0 to 100), Ryegrass, Italian
  pest or weed control at 250 g/ha: 25%
Italian ryegrass; Postemergence, 31 g ai/ha, scale 0 to 100 (0 no effect, 100 complete control), 13 to 15 days, read-out: Plant response rating, Ryegrass, Italian
  pest or weed control at 31 g/ha: 0%
Italian ryegrass; Postemergence, 62 g ai/ha, scale 0 to 100 (0 no effect, 100 complete control), read-out: Plant response rating, Ryegrass, Italian
  pest or weed control at 62 g/ha: 5%
wheat; [7]
  plant injury at 125 g/ha: 0%
wheat; [8]
  plant injury at 500 g/ha: 20%
Giant foxtail [5]; [7]
  pest or weed control at 125 g/ha: 90%
Giant foxtail [5]; [8]
  pest or weed control at 500 g/ha: 100%
Giant foxtail [6]; 125 g ai/ha, 0 to 100 scale where 0 is no effect and 100 is complete control, read-out: Plant response rating, Foxtail, Giant
  pest or weed control at 125 g/ha: 40%
Giant foxtail [6]; 500 g ai/ha, 0 to 100 scale, 0 no effect, 100 complete control, read-out: Plant response rating Foxtail, Giant
  pest or weed control at 500 g/ha: 100%
velvetleaf; 125 g ai/ha, 0 to 100 scale where 0 is no effect and 100 is complete control, read-out: Plant response rating, Velvetleaf
  pest or weed control at 125 g/ha: 100%
velvetleaf; 500 g ai/ha, 0 to 100 scale, 0 no effect, 100 complete control, read-out: Plant response rating Velvetleaf
  pest or weed control at 500 g/ha: 100%
